Assay results reported in patent US5882851A, “Cytochrome P-450 monooxygenases” (Novartis Finance Corporation, priority 1993, dated 1999).

Target: T1, cytochrome P-450TYR (Sorghum bicolor, UniProt Q43135)
T1 construct: from tissue; host or cells: microsomes of etiolated Sorghum bicolor seedlings, solubilised and purified by dye columns
T1 sequence (Q43135 1-558): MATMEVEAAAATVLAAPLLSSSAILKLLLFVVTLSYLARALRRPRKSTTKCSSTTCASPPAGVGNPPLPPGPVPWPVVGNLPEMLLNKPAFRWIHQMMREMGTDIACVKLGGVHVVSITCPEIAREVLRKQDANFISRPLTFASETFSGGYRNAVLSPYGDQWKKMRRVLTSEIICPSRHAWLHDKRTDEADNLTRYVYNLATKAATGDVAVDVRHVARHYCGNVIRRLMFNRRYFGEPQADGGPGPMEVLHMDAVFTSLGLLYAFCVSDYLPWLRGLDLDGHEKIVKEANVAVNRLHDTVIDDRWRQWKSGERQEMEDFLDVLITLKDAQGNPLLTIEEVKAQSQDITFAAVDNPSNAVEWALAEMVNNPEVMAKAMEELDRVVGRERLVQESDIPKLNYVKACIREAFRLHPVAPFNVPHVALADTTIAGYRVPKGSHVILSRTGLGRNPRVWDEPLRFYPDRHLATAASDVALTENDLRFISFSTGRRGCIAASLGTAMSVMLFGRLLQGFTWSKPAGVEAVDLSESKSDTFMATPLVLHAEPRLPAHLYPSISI
Test: Substrate binding spectra of isolated sorghum cytochrome P-450TYR (difference spectrum A390-420)
Experimental: Cytochrome P-450 substrate binding spectra are recorded with stepwise increased substrate concentration until saturating conditions are reached.
Cytochrome P-450TYR in the oxidized state has a strong absorption peak at 420 nm, representing the low spin state of the iron of the heme group. The binding of a ligand to the heme group shifts the absorption maximum by changing the spin state of the iron. […] The following experimental procedure is used to obtain the substrate binding spectrum: two identical cuvettes containing a buffered solution of the isolated cytochrome P-450 are prepared. The substrate of the enzyme is added to the sample cuvette whereas the same volume of buffer is added to the other cuvette. The difference spectrum is then recorded in an SLM-Aminco DW2c spectrophotometer. The absorption difference, A390-420, is proportional to the concentration of cytochrome P-450TYR with a bound substrate at its active site. If a saturating concentration of substrate is added to the sample cuvette, the absorption difference is proportional to the concentration of the substrate specific cytochrome P-450 in the cuvettes. The saturating concentration of the substrate is determined by titrating the cytochrome P-450 sample with increasing amounts of substrate and monitoring A390-420.
If a cytochrome P-450 sample can be saturated with two different substrates, there may be two different cytochrome P-450 enzymes in the sample, or there may be one cytochrome P-450 enzyme able to bind to both substrates. To discriminate between these possibilities, saturating amounts of the two substrates are added sequentially and the A390-420absorption change is monitored. If, independent of the order of addition, the addition of the second sample gives rise to an increased A390-420value compared to the value after the addition of the first substrate, the two substrates are bound by different enzymes. If A390-420 remains unchanged upon addition of the second substrate, independent of the order of addition, both substrates bind to the same active site, i.e. to the same cytochrome P-450 enzyme.

## N[C@@H](Cc1ccc(O)cc1)C(=O)O [tyrosine, L-tyrosine]
30 μl 5 mM tyrosine added to 500 μl P-450TYR
  initial A390-420: 0,0437
30 μl 5 mM tyrosine, dilution factor 530/500
  resulting A390-420: 0,0463
60 μl 5 mM tyrosine
  initial A390-420: 0,0496
60 μl 5 mM tyrosine, dilution factor 560/500
  resulting A390-420: 0,0556
90 μl 5 mM tyrosine
  initial A390-420: 0,0486
90 μl 5 mM tyrosine, dilution factor 590/500
  resulting A390-420: 0,0573
Isolated sorghum P-450TYR
  type of substrate binding spectrum: type I binding spectrum
